This note sets out measurements from patent US20260297105A1, “RAF-MEK PROTEIN COMPLEX MODULATORS AND METHODS OF USE THEREOF” (GANDEEVA THERAPEUTICS, INC., priority 2023, published 2026).

Experiment [1] deals with T1, MEK1 (Homo sapiens, UniProt Q02750).
T1 construct: purchased SignalChem M02-14H
Kind of experiment: MEK1 kinase cascade assay (ADP-Glo), inhibition of MEK1 kinase activity. It counts as biochemical. The settings on record: 25 nM BRAF, 6.25 nM MEK1, 0.5 μM ERK, 1 mM ATP; 20 min preincubation, 1 hr at 25° C.; read-out: BRAF ADP Glo kinase assay V3 (IC50). Put shortly:
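Cascade format with ADP-Glo read-out: BRAF (25 nM) and compound, 1% DMSO, 20 mins at 25° C, then MEK1 6.25 nM, ERK1 0.5 μM, ATP 1 mM for 1 hr at 25° C in HEPES pH 7.5 buffer with MgCl2, CHAPS and DTT. Percent inhibition, scaled between DMSO and 1 μM Trametinib, was fit by 4-parameter logistic to give IC50 (2 replicate wells).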
In general terms: ADP-Glo turns the ADP formed in a reaction into a luminescent signal.

Experiment [2] deals with BRAF-MEK1. In words: BRAF-MEK TR-FRET assay, stabilization of MEK1 and BRAF interaction. Conditions: 4 nM BRAF, 10 nM MEK, 100 μM ATP; 1 hr at 25° C.; read-out: BRAF-MEK TR-FRET Assay (EC50, fold stabilization). It counts as binding. In a few lines:
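Read-out is fold stabilization (treated FRET ratio/DMSO, Em 665/620 nm), fit 4-parameter for EC50 from 2 replicates. Compounds sat with 4 nM GST-BRAF and 10 nM in-house His-MEK1 1 h at 25° C (Tris pH 7.5, MgCl2, 100 μM ATP), then detection antibodies 1 h.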
Background: TR-FRET usually uses a lanthanide donor and a delayed reading to cut background.

In experiment [3] the test system is p-ERK1/2 in HCT116 cells. Kind of experiment: AlphaLISA p-ERK assay, cellular inhibition of ERK phosphorylation in HCT116 cells. The settings on record: Homo sapiens, HCT-116, 2 hours treatment, PMA stimulation 30 mins. It counts as cell-based. On the procedure:
Cell culture: HCTI 16, HT-29, and NCI-H292 cells were acquired from American Type Culture Collection (ATCC). HCT116 and HT-29 cells were maintained in ATCC-formulated McCoy's 5a Medium Modified supplemented with 10% fetal bovine serum, NCI-H292 cells were cultured in ATCC formulated RPMI-1640 supplemented with 10% fetal bovine serum. All cells were maintained at 37° C., 5% CO2.
Efficacy of exemplary compounds in cellular inhibition of ERK phosphorylation: Phosphorylation status of ERK1/2 (p-ERK) was used as a readout for inhibition of BRAF-MEK pathway. p-ERK was detected using an immunoassay for quantitative detection of phospho-ERK 1/2 (phosphorylated on Thr202/Tyr204 in ERK1, or Thr185/Tyr187 in ERK2), such as the AlphaLISA® SureFire® Ultra™ p-ERK1/2 (Thr202/Tyr204) kit (Perkin Elmer). HCT116 cells were plated at 10,000 cells per well in 384-well TC-treated plates (Coming). Cells were plated for 24 hours, the medium was then aspirated and cells were treated with vehicle (DMSO) or test compounds (0.1% DMSO in final volume) prepared in serum free, phenol red free medium for 2 hours. Following treatment, cells were stimulated with PMA (1.25 μM/well) for 30 mins after which the medium was aspirated, and the cells were lysed for 10 mins with 1× lysis buffer supplemented with Halt Protease and Phosphatase Inhibitor Cocktail (Thermo Fisher). The lysate was transferred to a 384 well Alpha-plate (PerkinElmer) and incubated for 1 hour with acceptor bead mix followed by 1 hour incubation with donor bead mix. After incubation, the plate was read on a Cytation5 microplate reader (Agilent). % inhibition as a function of compound concentration from 3 replicate wells was fit with a 4-parameter logistic curve using GraphPad Prism or CDD Vault to derive IC50 values.
In this table, for the BRAF ADP Glo kinase assay, “A” indicates IC50 of less than 5 nM; “B” indicates IC50 of between 5 nM to 50 nM; and “C” indicates IC50 of between 50 nM to 500 nM. “D” indicates IC50 of greater than 500 nM. For the BRAF-MEK TR-FRET assay, “A” indicates EC50 of less than 50 nM; “B” indicates EC50 of between 50 nM to 200 nM; and “C” indicates EC50 of between 200 nM to 1 μM. “D′” indicates EC50 of greater than 1 μM. For the AlphaLisa P-ERK assay, “A” indicates IC50 of less than 1 nM; “B” indicates IC50 of between 1 nM to 10 nM; and “C” indicates IC50 of between 10 nM to 100 nM. “D” indicates IC50 of greater than 100 nM. For the cell viability assay, “A” indicates IC50 of less than 1 nM; “B” indicates IC50 of between 1 nM to 10 nM; and “C” indicates IC50 of between 10 nM to 100 nM. “D” indicates IC50 of greater than 100 nM.
(Alpha assays give light when donor and acceptor beads are brought close together.)

In experiment [4] the test system is NCI-H292 cells. Kind of experiment: Cell viability assay (CellTiter-Glo), NCI-H292. It is filed as cell-based. Conditions: Homo sapiens, 72 hrs, read-out: Cell Viability Assay: IC50 Determination NCI-H292. In a few lines: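 Cells seeded at 2,000 per well in RPMI-1640 with 10% FBS, treated 24 h later with compound (0.1% DMSO) for 72 h. Viability read by CellTiter-Glo luminescence; IC50 from 4-parameter logistic fit of % inhibition over 3 replicate wells.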

T1 sequence (Q02750 whole entry): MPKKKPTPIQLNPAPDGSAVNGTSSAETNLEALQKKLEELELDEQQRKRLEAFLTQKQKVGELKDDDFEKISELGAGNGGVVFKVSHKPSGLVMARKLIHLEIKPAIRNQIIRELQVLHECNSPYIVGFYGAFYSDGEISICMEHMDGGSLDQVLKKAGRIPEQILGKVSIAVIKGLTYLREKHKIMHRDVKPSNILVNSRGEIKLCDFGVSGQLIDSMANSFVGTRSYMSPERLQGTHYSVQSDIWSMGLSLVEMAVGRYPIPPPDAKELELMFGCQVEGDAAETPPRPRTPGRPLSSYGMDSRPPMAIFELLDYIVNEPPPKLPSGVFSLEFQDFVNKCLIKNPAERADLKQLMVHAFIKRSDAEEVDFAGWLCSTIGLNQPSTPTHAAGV
T1 sequence (P15056 445-723 partner limits assumed): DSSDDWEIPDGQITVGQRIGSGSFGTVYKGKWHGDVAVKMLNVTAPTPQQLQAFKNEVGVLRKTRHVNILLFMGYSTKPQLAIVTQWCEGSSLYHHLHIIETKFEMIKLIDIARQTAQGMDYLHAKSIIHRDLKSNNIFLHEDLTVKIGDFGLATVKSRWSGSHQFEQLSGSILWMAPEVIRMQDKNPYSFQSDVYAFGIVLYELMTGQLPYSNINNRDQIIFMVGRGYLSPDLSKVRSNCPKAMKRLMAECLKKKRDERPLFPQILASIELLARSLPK

On to `CNS(=O)(=O)Nc1cccc(CN2Cc3ccc(Oc4ncco4)cc3OC2=O)c1F` [Compound 80, 3-({2-fluoro-3-[(methylsulfamoyl)amino]phenyl}methyl)-7-(1,3-oxazol-2-yloxy)-3,4-dihydro-2H-1,3-benzoxazin-2-one], for which the values for the half-maximal inhibitory concentration (IC50) in experiment [1], in experiment [3] and in experiment [4] were 5 to 50 nM, 10 to 100 nM and 1 to 10 nM, respectively. For the same molecule, the EC50 in experiment [2] lay in the range of 200 to 1000 nM.

Consider `CNS(=O)(=O)Nc1cccc(CN2Cc3c(F)cc(OC(=O)N(C)C)cc3OC2=O)c1F` [Compound 118, 5-fluoro-3-(2-fluoro-3-((N-methylsulfamoyl)amino)benzyl)-2-oxo-3,4-dihydro-2H-benzo[e][1,3]oxazin-7-yl dimethylcarbamate], for which the figures for the IC50 in experiment [1], in experiment [3] and in experiment [4] were below 5 nM, 1 to 10 nM and below 1 nM, respectively. The EC50 in experiment [2] lay in the range of 50 to 200 nM.

On to `CN(C)S(=O)(=O)Nc1cccc(CN2C(=O)Oc3cc(Oc4cccnn4)ccc3C23COC3)c1F` [Compound 64, 3-({3-[(dimethylsulfamoyl)amino]-2-fluorophenyl}methyl)-7-(pyridazin-3-yloxy)-2,3-dihydrospiro[1,3-benzoxazine-4,3′-oxetan]-2-one], for which the figures for the IC50 in experiment [1], in experiment [3] and in experiment [4] were below 5 nM, 1 to 10 nM and 1 to 10 nM, respectively. For the same molecule, the EC50 in experiment [2] lay within 50 to 200 nM.

Take `CNS(=O)(=O)Nc1nccc(CN2Cc3ccc(Oc4nccnn4)cc3OC2=O)c1F` [Compound 164, 3-{[3-fluoro-2-(methylaminosulfonylamino)-4-pyridyl]methyl}-7-(1,2,4-triazin-3-yloxy)-3,4-dihydro-2H-1,3-benzoxazin-2-one]: the IC50 in experiment [1] was 5 to 50 nM; in experiment [3] it was 10 to 100 nM; in experiment [4], below 1 nM. In addition, the EC50 in experiment [2] was below 50 nM.

Consider `CNS(=O)(=O)Nc1cccc(CN2C(=O)Oc3cc(Oc4cccnn4)c(F)cc3[C@H]2C)c1F` (single isomer, unassigned) [Compound 67], for which the values for the IC50 in experiment [1], in experiment [3] and in experiment [4] were 5 to 50 nM, 1 to 10 nM and 1 to 10 nM, respectively. In experiment [2], the EC50 lay within 200 to 1000 nM.

Turning to `CNS(=O)(=O)Nc1cccc(CN2C(=O)Oc3cc(Oc4cccnn4)ccc3C23CCC3)c1F` [Compound 41, 3-({2-fluoro-3-[(methylsulfamoyl)amino]phenyl}methyl)-7-(pyridazin-3-yloxy)-2,3-dihydrospiro[1,3-benzoxazine-4,1′-cyclobutan]-2-one], the figures for the IC50 in experiment [1], in experiment [3] and in experiment [4] were below 5 nM, 1 to 10 nM and 1 to 10 nM, respectively. Besides, the EC50 in experiment [2] was below 50 nM.

For the molecule `O=C1Oc2cc(Oc3cccnn3)c(F)cc2C2(COC2)N1Cc1cccc(NS(=O)(=O)C2CC2)c1F` [Compound 53, N-(2-fluoro-3-{[6-fluoro-2-oxo-7-(pyridazin-3-yloxy)-2,3-dihydrospiro[1,3-benzoxazine-4,3′-oxetan]-3-yl]methyl}phenyl)cyclopropanesulfonamide], the figures for the IC50 in experiment [1], in experiment [3] and in experiment [4] were 5 to 50 nM, 10 to 100 nM and 1 to 10 nM, respectively. In experiment [2], the EC50 is 50 to 200 nM.

With `CNS(=O)(=O)Nc1cccc(CN2C(=O)Oc3cc(Oc4cccnn4)cc(F)c3C23COC3)c1F` [Compound 63], the IC50 in experiment [1] fell in the range of 5 to 50 nM; in experiment [3], 1 to 10 nM; in experiment [4], 1 to 10 nM. Besides, the EC50 in experiment [2] lay in the range of 50 to 200 nM.

As to `[2H]C1([2H])c2ccc(Oc3cccnn3)cc2OC(=O)N1Cc1cccc(NS(=O)(=O)NC)c1F` [Compound 52, 3-{[2-fluoro-3-(methylaminosulfonylamino)phenyl]methyl}-7-(3-pyridazinyloxy)(4,4-^2H2)-3,4-dihydro-2H-1,3-benzoxazin-2-one], the figures for the IC50 in experiment [1], in experiment [3] and in experiment [4] were 5 to 50 nM, 1 to 10 nM and 1 to 10 nM, respectively. Moreover, the EC50 in experiment [2] was 50 to 200 nM.

With `CNS(=O)(=O)Nc1cccc(CN2C(=O)Oc3c(ccc(Oc4ncco4)c3F)C23COC3)c1F` [Compound 82], the IC50 was below 5 nM in experiment [1], 1 to 10 nM in experiment [3] and 1 to 10 nM in experiment [4]. Moreover, the EC50 in experiment [2] was 200 to 1000 nM.

For the molecule `CNS(=O)(=O)Nc1cccc(CN2C(=O)Oc3cc(Oc4cccnn4)c(F)cc3C23COC3)c1F` [Compound 58, 6-fluoro-3-({2-fluoro-3-[(methylsulfamoyl)amino]phenyl}methyl)-7-(pyridazin-3-yloxy)-2,3-dihydrospiro[1,3-benzoxazine-4,3′-oxetan]-2-one], the values for the IC50 in experiment [1], in experiment [3] and in experiment [4] were below 5 nM, below 1 nM and below 1 nM, respectively. Also, the EC50 in experiment [2] was below 50 nM.

With `CNS(=O)(=O)Nc1cccc(CN2C(=O)Oc3cc(Oc4cccnn4)ccc3C23COC3)c1F` [Compound 81, 3-({2-fluoro-3-[(methylsulfamoyl)amino]phenyl}methyl)-7-(pyridazin-3-yloxy)-2,3-dihydrospiro[1,3-benzoxazine-4,3′-oxetan]-2-one], the IC50 is below 5 nM in experiment [1], 1 to 10 nM in experiment [3] and 1 to 10 nM in experiment [4]. In experiment [2], the EC50 was in the range of 50 to 200 nM.

For `CNS(=O)(=O)Nc1cccc(CN2C(=O)Oc3cc(OC(=O)N(C)C)ccc3C23COC3)c1F` [Compound 115, 3-({2-fluoro-3-[(methylsulfamoyl)amino]phenyl}methyl)-2-oxo-2,3-dihydrospiro[1,3-benzoxazine-4,3′-oxetan]-7-yl N,N-dimethylcarbamate], the IC50 was below 5 nM in experiment [1], 1 to 10 nM in experiment [3] and below 1 nM in experiment [4]. Further, the EC50 in experiment [2] was 50 to 200 nM.

As to `CNS(=O)(=O)Nc1cccc(CN2C(=O)Oc3c(ccc(Oc4cccnn4)c3F)[C@@H]2C)c1F` (single isomer, unassigned) [Compound 35], the IC50 in experiment [1] is below 5 nM; in experiment [3], 10 to 100 nM; in experiment [4], 10 to 100 nM. The EC50 in experiment [2] is 50 to 200 nM.

With `CNS(=O)(=O)Nc1cccc(CN2Cc3ccc(Oc4cccnn4)cc3OC2=O)c1F` [Compound 105, 3-({2-fluoro-3-[(methylsulfamoyl)amino]phenyl}methyl)-7-(pyridazin-3-yloxy)-3,4-dihydro-2H-1,3-benzoxazin-2-one], the results for the IC50 in experiment [1], in experiment [3] and in experiment [4] were below 5 nM, 1 to 10 nM and 1 to 10 nM, respectively. For the same molecule, the EC50 in experiment [2] is below 50 nM.

As to `CNS(=O)(=O)Nc1cccc(CN2C(=O)Oc3cc(Oc4cccnn4)ccc3[C@@H]2C)c1F` (single isomer, unassigned) [Compound 72, (R)-3-({2-fluoro-3-(methylsulfamoyl)amino]phenyl}methyl)-4-methyl-7-(pyridazin-3-yloxy)-3,4-dihydro-2H-1,3-benzoxazin-2-one or (S)-3-({2-fluoro-3-(methylsulfamoyl)amino]phenyl}methyl)-4-methyl-7-(pyridazin-3-yloxy)-3,4-dihydro-2H-1,3-benzoxazin-2-one], the IC50 in experiment [1] lay within 5 to 50 nM; in experiment [3], 1 to 10 nM; in experiment [4] it was 1 to 10 nM. Also, the EC50 in experiment [2] lay in the range of 50 to 200 nM.

A word on the IC50: it is the concentration that inhibits the measured activity by half.
